In ChEMBL document CHEMBL1201862, “PubChem BioAssay data set” (2004):
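Cultured in 96-well plates, cells were exposed to test compound for 48 hours across five concentrations. The concentration for 50% growth inhibition is given as GI50.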 Calls of active or inactive are those of the source. Rule as the data show it: active = GI50 up to about 1.1 µM and inactive = higher.

Legend:
Assay in all cases: inhibition of tumour cell growth, NCI panel, 48 h
SF-295 = tested on: SF-295
K562 = tested on: K562
UACC-62 = tested on: UACC-62
A549 = tested on: A549
SF-268 = tested on: SF-268
SK-MEL-28 = tested on: SK-MEL-28
DMS-114 = tested on: DMS-114
A498 = tested on: A498
RPMI-8226 = tested on: RPMI-8226
M19-MEL = tested on: M19-MEL
ACHN = tested on: ACHN
SK-MEL-5 = tested on: SK-MEL-5
NCI-H460 = tested on: NCI-H460
SW-620 = tested on: SW-620
HCT-116 = tested on: HCT-116
Malme-3M = tested on: Malme-3M
RXF 393 = tested on: RXF 393
OVCAR-8 = tested on: OVCAR-8
EKVX = tested on: EKVX
SNB-75 = tested on: SNB-75
LOX IMVI = tested on: LOX IMVI
SN12C = tested on: SN12C
TK-10 = tested on: TK-10
786-0 = tested on: 786-0
CCRF-CEM = tested on: CCRF-CEM
NCI-H23 = tested on: NCI-H23
UACC-257 = tested on: UACC-257
KM-20L2 = tested on: KM-20L2
OVCAR-3 = tested on: OVCAR-3
SF-539 = tested on: SF-539
UO-31 = tested on: UO-31
SK-OV-3 = tested on: SK-OV-3
KM12 = tested on: KM12
HOP-18 = tested on: HOP-18
HCT-15 = tested on: HCT-15
HOP-92 = tested on: HOP-92
NCI-H522 = tested on: NCI-H522
OVCAR-4 = tested on: OVCAR-4
LXFL 529 = tested on: LXFL 529
HT-29 = tested on: HT-29
COLO 205 = tested on: COLO 205
OVCAR-5 = tested on: OVCAR-5
MOLT-4 = tested on: MOLT-4
M14 = tested on: M14
IGROV-1 = tested on: IGROV-1
DMS-273 = tested on: DMS-273
SNB-19 = tested on: SNB-19
SNB-78 = tested on: SNB-78
U-251 = tested on: U-251
SK-MEL-2 = tested on: SK-MEL-2
NCI-H226 = tested on: NCI-H226
DLD-1 = tested on: DLD-1
HCC 2998 = tested on: HCC 2998
SR = tested on: SR
HOP-62 = tested on: HOP-62
HL-60 = tested on: HL-60
CAKI-1 = tested on: CAKI-1

COc1cc2cc[n+](C)c(Cc3ccccc3)c2cc1OC
GI50 (SF-295): > 100 µM (inactive)
GI50 (K562): > 100 µM (inactive)
GI50 (UACC-62): > 100 µM (inactive)
GI50 (A549): > 100 µM (inactive)
GI50 (SF-268): > 100 µM (inactive)
GI50 (SK-MEL-28): > 100 µM (inactive)
GI50 (DMS-114): 79.6 µM (inactive)
GI50 (A498): > 100 µM (inactive)
GI50 (RPMI-8226): > 100 µM (inactive)
GI50 (M19-MEL): > 100 µM (inactive)
GI50 (ACHN): > 100 µM (inactive)
GI50 (SK-MEL-5): > 100 µM (inactive)
GI50 (NCI-H460): > 100 µM (inactive)
GI50 (SW-620): > 100 µM (inactive)
GI50 (HCT-116): > 100 µM (inactive)
GI50 (Malme-3M): > 100 µM (inactive)
GI50 (RXF 393): > 100 µM (inactive)
GI50 (OVCAR-8): > 100 µM (inactive)
GI50 (EKVX): > 100 µM (inactive)
GI50 (SNB-75): > 100 µM (inactive)
GI50 (LOX IMVI): > 100 µM (inactive)
GI50 (SN12C): > 100 µM (inactive)
GI50 (TK-10): > 100 µM (inactive)
GI50 (786-0): > 100 µM (inactive)
GI50 (CCRF-CEM): > 100 µM (inactive)
GI50 (NCI-H23): > 100 µM (inactive)
GI50 (UACC-257): > 100 µM (inactive)
GI50 (KM-20L2): > 100 µM (inactive)
GI50 (OVCAR-3): > 100 µM (inactive)
GI50 (SF-539): > 100 µM (inactive)
GI50 (UO-31): > 100 µM (inactive)
GI50 (SK-OV-3): > 100 µM (inactive)
GI50 (KM12): > 100 µM (inactive)
GI50 (HOP-18): > 100 µM (inactive)
GI50 (HCT-15): > 100 µM
GI50 (HOP-92): 96.6 µM (inactive)
GI50 (NCI-H522): 86.1 µM (inactive)
GI50 (OVCAR-4): > 100 µM (inactive)
GI50 (LXFL 529): > 100 µM (inactive)
GI50 (HT-29): > 100 µM (inactive)
GI50 (COLO 205): > 100 µM (inactive)
GI50 (OVCAR-5): > 100 µM (inactive)
GI50 (MOLT-4): > 100 µM (inactive)
GI50 (M14): > 100 µM (inactive)
GI50 (IGROV-1): > 100 µM (inactive)
GI50 (DMS-273): > 100 µM (inactive)
GI50 (SNB-19): > 100 µM (inactive)
GI50 (SNB-78): > 100 µM (inactive)
GI50 (U-251): > 100 µM (inactive)
GI50 (SK-MEL-2): > 100 µM (inactive)
GI50 (NCI-H226): > 100 µM (inactive)

C/N=C1\S/C(=N\c2ccc(N(C)C)cc2)N1C
GI50 (SF-295): 40.4 µM (inactive)
GI50 (K562): 29.7 µM (inactive)
GI50 (UACC-62): 33.5 µM (inactive)
GI50 (A549): 43 µM (inactive)
GI50 (SF-268): 24.9 µM (inactive)
GI50 (SK-MEL-28): 38.8 µM (inactive)
GI50 (DMS-114): 17.9 µM (inactive)
GI50 (A498): 23 µM (inactive)
GI50 (RPMI-8226): 34.5 µM (inactive)
GI50 (M19-MEL): 38 µM (inactive)
GI50 (SK-MEL-5): 25.2 µM (inactive)
GI50 (NCI-H460): 36.3 µM (inactive)
GI50 (SW-620): 38.1 µM (inactive)
GI50 (HCT-116): 32.7 µM (inactive)
GI50 (Malme-3M): 39.9 µM (inactive)
GI50 (DLD-1): 29.8 µM (inactive)
GI50 (OVCAR-8): 35.1 µM (inactive)
GI50 (EKVX): 25 µM (inactive)
GI50 (SNB-75): 19 µM (inactive)
GI50 (LOX IMVI): 46 µM (inactive)
GI50 (SN12C): 31 µM (inactive)
GI50 (TK-10): 55.7 µM (inactive)
GI50 (786-0): 42.8 µM (inactive)
GI50 (CCRF-CEM): 36.1 µM (inactive)
GI50 (NCI-H23): 32.1 µM (inactive)
GI50 (UACC-257): 47.8 µM (inactive)
GI50 (OVCAR-3): 39.4 µM (inactive)
GI50 (SF-539): 32.1 µM (inactive)
GI50 (UO-31): 31.6 µM (inactive)
GI50 (SK-OV-3): 26.8 µM (inactive)
GI50 (KM12): 57.1 µM (inactive)
GI50 (HOP-18): 35 µM (inactive)
GI50 (HCT-15): 30.5 µM
GI50 (HOP-92): 21.8 µM (inactive)
GI50 (NCI-H522): 25.8 µM (inactive)
GI50 (OVCAR-4): 44.1 µM (inactive)
GI50 (LXFL 529): 40.5 µM (inactive)
GI50 (HT-29): 28.2 µM (inactive)
GI50 (COLO 205): 39.4 µM (inactive)
GI50 (OVCAR-5): 75.5 µM (inactive)
GI50 (MOLT-4): 43 µM (inactive)
GI50 (M14): 33.1 µM (inactive)
GI50 (IGROV-1): 51.8 µM (inactive)
GI50 (DMS-273): 54.1 µM (inactive)
GI50 (HCC 2998): 33.2 µM (inactive)
GI50 (SNB-19): 42.2 µM (inactive)
GI50 (SR): 46.1 µM (inactive)
GI50 (HOP-62): > 100 µM (inactive)
GI50 (SNB-78): 22.9 µM (inactive)
GI50 (HL-60): 34.4 µM (inactive)
GI50 (U-251): 33.9 µM (inactive)
GI50 (SK-MEL-2): 33.9 µM (inactive)
GI50 (NCI-H226): 52.1 µM (inactive)

CC1OC(OC2C(OC(=O)[C@]34CCC(C)(C)CC3C3=CCC5[C@@]6(C)C[C@H](O)[C@H](OC7OC(CO)C(O)C(O)C7N)[C@@](C)(C(=O)O)C6CC[C@@]5(C)C3(C)CC4)OCC(O)C2O)C(O)C(O)C1OC1OCC(O)C(O)C1O (stereo partly specified)
GI50 (SF-295): > 100 µM (inactive)
GI50 (K562): > 100 µM (inactive)
GI50 (UACC-62): > 100 µM (inactive)
GI50 (A549): > 100 µM (inactive)
GI50 (SF-268): > 100 µM (inactive)
GI50 (SK-MEL-28): > 100 µM (inactive)
GI50 (DMS-114): > 100 µM (inactive)
GI50 (A498): > 100 µM (inactive)
GI50 (RPMI-8226): > 100 µM (inactive)
GI50 (M19-MEL): > 100 µM (inactive)
GI50 (ACHN): > 100 µM (inactive)
GI50 (SK-MEL-5): > 100 µM (inactive)
GI50 (NCI-H460): > 100 µM (inactive)
GI50 (SW-620): > 100 µM (inactive)
GI50 (Malme-3M): > 100 µM (inactive)
GI50 (RXF 393): > 100 µM (inactive)
GI50 (DLD-1): > 100 µM (inactive)
GI50 (OVCAR-8): > 100 µM (inactive)
GI50 (EKVX): > 100 µM (inactive)
GI50 (SNB-75): > 100 µM (inactive)
GI50 (LOX IMVI): > 100 µM (inactive)
GI50 (SN12C): > 100 µM (inactive)
GI50 (TK-10): > 100 µM (inactive)
GI50 (786-0): > 100 µM (inactive)
GI50 (CCRF-CEM): > 100 µM (inactive)
GI50 (NCI-H23): > 100 µM (inactive)
GI50 (UACC-257): > 100 µM (inactive)
GI50 (KM-20L2): > 100 µM (inactive)
GI50 (OVCAR-3): > 100 µM (inactive)
GI50 (SF-539): > 100 µM (inactive)
GI50 (UO-31): > 100 µM (inactive)
GI50 (SK-OV-3): > 100 µM (inactive)
GI50 (KM12): > 100 µM (inactive)
GI50 (HOP-18): > 100 µM (inactive)
GI50 (HCT-15): > 100 µM
GI50 (HOP-92): > 100 µM (inactive)
GI50 (NCI-H522): > 100 µM (inactive)
GI50 (HT-29): > 100 µM (inactive)
GI50 (COLO 205): > 100 µM (inactive)
GI50 (OVCAR-5): > 100 µM (inactive)
GI50 (MOLT-4): > 100 µM (inactive)
GI50 (IGROV-1): > 100 µM (inactive)
GI50 (DMS-273): > 100 µM (inactive)
GI50 (HCC 2998): > 100 µM (inactive)
GI50 (SNB-19): > 100 µM (inactive)
GI50 (HOP-62): > 100 µM (inactive)
GI50 (SNB-78): > 100 µM (inactive)
GI50 (CAKI-1): > 100 µM (inactive)
GI50 (HL-60): > 100 µM (inactive)
GI50 (U-251): > 100 µM (inactive)
GI50 (SK-MEL-2): > 100 µM (inactive)
GI50 (NCI-H226): > 100 µM (inactive)
